In patent US12607622B2, “Method for diagnosing and monitoring inflammatory disease progression” (MCMASTER UNIVERSITY, priority 2013, dated 2026):

System: BDNF
Test: BDNF transcript expression in the uterus of ovariectomized mice by Real Time PCR
Type: in vivo
Details: estradiol primed, Real Time PCR relative expression, FIG. 8
Experimental: BDNF transcripts were measured in the murine uterus of ovariectomized mice by Real Time PCR and relative expression quantified in mice receiving saline (Control (n=4)), estradiol primed then estradiol (E2 (n=6)), estradiol primed then progesterone (P4 (n=6)), estradiol primed then estradiol+progesterone (E2+P4 (n=6)), or estradiol primed then saline (Saline (n=4). [table]

CC(=O)[C@H]1CC[C@H]2[C@@H]3CCC4=CC(=O)CC[C@]4(C)[C@H]3CC[C@]12C [P4, progesterone]
BDNF expression in the uterus: significantly increased
